Assay [1] relates to P. aeruginosa Pa4. Description: MIC90 by broth microdilution assay. To be noted: Pseudomonas aeruginosa, PA4, 20 h, 37° C. The class given is cell-based. As for the experimental part: (§1) ^aMIC90 values (μM) were determined using the broth microdilution method in Mueller-Hinton broth No. 2 (MHII) with visual end point analysis according to the CLSI guidelines (Methods for Dilution Antimicrobial Susceptibility Tests for Bacteria that Grow Aerobically, 8th ed. (Villanova, Pa., USA), Clinical and Laboratory Standards Institute (CLSI), 2009, approved standard document M07-A7). ^bEach compound was tested in triplicate.
(§2) All liquids and media were sterilized by autoclaving (121° C., 15 min) before use. All aqueous solutions and media were prepared using distilled, deionized, and filtered water (Millipore Milli-Q Advantage A10 Water Purification System). Luria broth (LB) was purchased from VWR. Mueller-Hinton No. 2 broth (MHII broth; cation adjusted) was purchased from Sigma-Aldrich (St. Louis, Mo.). Iron-deficient (—Fe) MHII broth was prepared by adding 0.8 mL of a 1 mg/mL sterile aq. solution of 2,2′-bipyridine to 49.2 mL of MHII broth. Iron-rich (+Fe) MHII broth was prepared by adding 0.8 mL of a 1 mg/mL sterile aq. solution of FeCl3 to 49.2 mL of MHII broth. Mueller-Hinton No. 2 agar (MHII agar; HiMedia Laboratories) was purchased from VWR. Iron-deficient (−Fe) MHII agar was prepared by adding 0.5 mL of a 1 mg/mL sterile aq. solution of 2,2′-bipyridine to 34 mL of melted MHII agar with gentle mixing. Iron-rich (+Fe) MHII agar was prepared by adding 0.5 mL of a 1 mg/mL sterile aq. solution of FeCl3 to 34 mL of melted MHII agar with gentle mixing. See also Wencewicz, T. A. Dissertation, University of Notre Dame, Notre Dame, Ind., 2011, for relevant techniques.
(§3) Determination of MIC90 Values by the Broth Microdilution Assay.
(§4) Antibacterial activity of the compounds was determined by measuring their minimum inhibitory concentrations (MIC90's) using the broth microdilution method according to the Clinical and Laboratory Standards Institute (CLSI, formerly the NCCLS) guidelines. Each well of a 96-well microtiter plate was filled with 50 μL of sterile broth media (−Fe or +Fe). Each test compound was dissolved in DMSO making a 20 mM solution, and then diluted with sterile broth media (−Fe or +Fe) to 400 or 800 μM. Exactly 50 μL of the compound solution was added to the first well of the microtiter plate and 2-fold serial dilutions were made down each row of the plate. Exactly 50 μL of bacterial inoculum (5×10^5 CFU/mL in broth media) was then added to each well giving a total volume of 100 μL/well. The plate was incubated at 37° C. for 20 h and then each well was examined for bacterial growth. The MIC90 was recorded as the lowest compound concentration (μM) required to inhibit 90% of bacterial growth as judged by turbidity of the culture media relative to a row of wells filled with a DMSO standard.

A further assay concerns P. aeruginosa PAO1. Description: MIC90 by broth microdilution assay. The assay is classed as cell-based. The conditions noted are these: Pseudomonas aeruginosa, PAO1, 20 h, 37° C. The protocol:
as §1, §2, §3, §4

The test system of assay [2] is K. pneumoniae ATCC 8303 X68. Description: MIC90 by broth microdilution assay. The assay is classed as cell-based. The conditions noted are these: Klebsiella pneumoniae; for MIC90: ATCC8303, 20 h, K. pneumoniae ATCC 8303 X68, 37° C., 20 h. As for the experimental part: as §1, §2, §3, §4
For assay [3], the system named is P. aeruginosa KW799/wt. The assay is described as follows: MIC90 by broth microdilution assay. The class given is cell-based. The conditions noted are these: Pseudomonas aeruginosa, 20 h, 37° C. The protocol: as §1, §2, §3, §4
A further assay deals with P. aeruginosa KW799/61. Description: MIC90 by broth microdilution assay. To be noted: Pseudomonas aeruginosa, KW799/61, 20 h. The assay is classed as cell-based. As for the experimental part: as §1, §2, §3, §4
The test system of assay [4] is P. aeruginosa KW799/wt. The assay is described as follows: Agar diffusion antibacterial susceptibility assay. The assay is classed as cell-based, Pseudomonas aeruginosa. To be noted: Pseudomonas aeruginosa, KW799/WT, 24 h, 50 μL of 0.2 mM solution, 37° C., read-out: Diameter of growth inhibition zones. As for the experimental part:
as §2
(§5) Antibacterial Susceptibility Testing by the Agar Diffusion Assay.
(§6) Antibacterial activity of the compounds was determined by a modified Kirby-Bauer agar diffusion assay. Overnight cultures of test organisms were grown in LB broth for 18-24 h and standard suspensions of […] were prepared in saline solution (0.9% NaCl) according to a 0.5 BaSO4 McFarland Standard. This standardized suspension (0.1 mL) was added to 34 mL of sterile, melted agar (−Fe or +Fe) tempered to 47-50° C. After gentle mixing, the inoculated agar media was poured into a sterile plastic petri dish (145 mm×20 mm) and allowed to solidify near a flame with the lid ajar for about 30 min. Wells of 9.0 mm diameter were cut from the petri dish agar and filled with exactly 50 μL of the test sample solution. The petri dish was incubated at 37° C. for 18-24 h and the inhibition zone diameters were measured (mm) with an electronic caliper after 24 h.

In assay [5] the test system is P. aeruginosa K648 (pvd−, pch−). Description: Agar diffusion antibacterial susceptibility assay. The class given is cell-based, Pseudomonas aeruginosa. To be noted: for zone of inhibition at 200 µM: Pseudomonas aeruginosa, 24 h, read-out: Diameter of growth inhibition zones, P. aeruginosa K648 (pvd−, pch−), 50 μL of 0.2 mM solution, 37° C., 24 hours. The protocol: as §2, §5, §6

In the next assay the test system is P. aeruginosa Pa6. Description: MIC90 by broth microdilution assay. The assay is classed as cell-based, Pseudomonas aeruginosa. The conditions noted are these: for MIC90: P. aeruginosa Pa6, 37° C., 20 h. The protocol:
as §1, §2, §3, §4

Assay [6] relates to P. aeruginosa Pa4. Description: Agar diffusion antibacterial susceptibility assay. The class given is cell-based, Pseudomonas aeruginosa. The conditions noted are these: Pseudomonas aeruginosa, PA4, 24 h, 50 μL of 0.2 mM solution, 37° C., read-out: Diameter of growth inhibition zones. The protocol:
as §2, §5, §6

A further assay concerns E. coli ATCC 25922. The assay is described as follows: MIC90 by broth microdilution assay. The assay is classed as cell-based, Escherichia coli. The conditions noted are these: for MIC90: Escherichia coli, ATCC25922, 20 h, E. coli ATCC 25922, 37° C., 20 h. The protocol: as §1, §2, §3, §4
Where [7] appears, read: −Fe (iron-deficient) MHII broth.

Converted amounts (≈) assume the structure as drawn. Like-named read-outs stand apart in the source and are kept apart here.

On to `CC(=O)Oc1cccc(C(=O)NCCCC(CCCNC(=O)c2cccc(OC(C)=O)c2OC(C)=O)(CCCNC(=O)c2cccc(OC(C)=O)c2OC(C)=O)NC(=O)CCC(=O)NC(C(=O)NC2C(=O)N3C2SC(C)(C)C3C(=O)O)c2ccc(O)cc2)c1OC(C)=O` (stereo not drawn) [Compound 11], for which the MIC90 in the assay on P. aeruginosa Pa4 [1] (+Fe (iron-rich) MHII broth) was 25 µM (≈ 32.8 µg/mL); with P. aeruginosa Pa4 [1] (setting [7]), 0.21 µM (≈ 0.275 µg/mL); with P. aeruginosa PAO1 (+Fe (iron-rich) MHII broth), 50 µM (≈ 65.5 µg/mL); against P. aeruginosa PAO1 (setting [7]), 0.39 µM (≈ 0.511 µg/mL); in assay [2] (+Fe (iron-rich) MHII broth), over 200 µM; in [2] (setting [7]) it was over 100 µM. The MIC90 was 25 µM (≈ 32.8 µg/mL) against P. aeruginosa KW799/wt [3] (+Fe (iron-rich) MHII broth); 0.05 µM (≈ 0.0655 µg/mL) against P. aeruginosa KW799/wt [3] (setting [7]); 12.5 µM (≈ 16.4 µg/mL) with P. aeruginosa KW799/61 (read-out: MIC (MIC90), P. aeruginosa KW799/61, +Fe (iron-rich) MHII broth, 37° C.); 0.083 µM (≈ 0.109 µg/mL) in the assay on P. aeruginosa KW799/61 (read-out: MIC (MIC90), P. aeruginosa KW799/61, −Fe (iron-deficient) MHII broth, 37° C.); over 200 µM against P. aeruginosa Pa6 (setting [7]); over 200 µM in the assay with P. aeruginosa Pa6 (Pseudomonas aeruginosa, +Fe (iron-rich) MHII broth). Moreover, the MIC90 in the assay on E. coli ATCC 25922 (+Fe (iron-rich) MHII broth) came out at 100 µM (≈ 131 µg/mL); against E. coli ATCC 25922 (setting [7]), 6.25 µM (≈ 8.19 µg/mL). Also, in assay [2] (ATCC8303, stated as inactive, read-out: MIC against K. pneumoniae), the MIC was over 100 µM. In addition, the zone of inhibition at 200 µM in the assay with P. aeruginosa KW799/wt [4] (+Fe agar) was determined as 25 mm; in the assay with P. aeruginosa KW799/wt [4] (−Fe agar) it was 26 mm; in assay [5] (+Fe agar), 0 mm; in assay [5] (−Fe agar), 17 mm; in the assay with P. aeruginosa Pa4 [6] (+Fe agar) it was 0 mm; with P. aeruginosa Pa4 [6] (−Fe agar), 20 mm. Also, the “activity against K648 strain (agar diffusion, in words)” value in assay [5] (iron-rich medium) is “inactive”. For the same compound, the “activity against Pa6 (MIC assay, in words)” value with P. aeruginosa Pa6 (exception among wild type strains) is “inactive”. For the same compound, the “potency against E. coli relative to amoxicillin (in words)” value in the assay with E. coli ATCC 25922 (MIC compared with parent drug) was “almost as equipotent as amoxicillin”.

Values taken from US9302012B2, “Anti-bacterial siderophore-aminopenicillin conjugates” (University of Notre Dame Du Lac, priority 2012, dated 2016).
